US20250025451A1, “TREATMENT OF CANCER WITH KDM4 INHIBITORS” (Celgene Corporation, priority 2021, published 2025)

System: 301 cancer cell lines from different tumor types
Assay: 2D cell viability inhibition assay, broad cancer cell line panel (OncoPanel; CellTiter-Glo)
Assay type: cell-based
Design: key to Emax: % of DMSO control (minimum response over dose range); AUC: scale not given here
Settings: for AUC / Emax: 168 hours; for Emax: in % (unit assumed)
Protocol: In a larger screening study, compound 1 was evaluated across a broad cancer cell line panel (OncoPanel; HD Biosciences) composed of 301 cancer cell lines from different tumor types.
2D cell viability inhibition assays were performed in multiwell plates seeded with cells from the panel. After seeding, the plates were cultured overnight in a humidified incubator at 37° C. to promote adherence. Assays were initiated in individual wells by adding either DMSO as a vehicle control, growth media as a blank, or serially diluted compound 1 (10 μM to 0.0005 μM with 1:3 serial dilution). Cultures were incubated for 168 hours after which the number of viable cells in each test well was assessed using the CellTiter-Glo® Luminescent Cell Viability Assay. Luminescence readouts were performed using an EnVision® Multilabel Reader and the compound 1 readouts were normalized to the DMSO control readouts, expressed as a percent of the control. Outliers were flagged out by visual inspection. Percent of control was plotted against the corresponding compound 1 concentration and the absolute IC50 value was determined using four-parameter logistic non-linear regression as the concentration where inhibition was 50% of the control. […] Emax was recorded as the minimum in y with the compound dose range. […] The sensitive/moderate/resistant calls for each cell line was determined by visually inspecting the resulting clustering dendrogram. All the analyses were done in R Core Team.

[1] = Homo sapiens, NCI-H1650, 168 h, NCIH1650 (lung, bronchioloalveolar adenocarcinoma)
[2] = Homo sapiens, NCI-H1755, 168 h, NCIH1755 (lung, adenocarcinoma)
[3] = Homo sapiens, NCI-H1838, 168 h, NCIH1838 (lung, non-small cell carcinoma)
[4] = Homo sapiens, NCI-H2009, 168 h, NCIH2009 (lung, adenocarcinoma)
[5] = Homo sapiens, ONS-76, 168 h, ONS76 (central nervous system, NS)
[6] = Homo sapiens, OVCAR-3, 168 h, NIHOVCAR3 (ovary, NS)
[7] = Homo sapiens, RPMI-7951, 168 h, RPMI7951 (skin, NS)
[8] = Homo sapiens, SAOS-2, 168 h, SAOS2 (bone, NS)
[9] = Homo sapiens, SCC-9, 168 h, SCC9 (upper aerodigestive tract, squamous cell carcinoma)
[10] = Homo sapiens, SCC-15, 168 h, SCC15 (upper aerodigestive tract, squamous cell carcinoma)
[11] = Homo sapiens, SCC-25, 168 h, SCC25 (upper aerodigestive tract, squamous cell carcinoma)
[12] = Homo sapiens, SK-HEP1, 168 h, SKHEP1 (liver, adenocarcinoma)
[13] = Homo sapiens, SK-MEL-24, 168 h, SKMEL24 (skin, NS)
[14] = Homo sapiens, SK-N-SH, 168 h, SKNSH (autonomic ganglia, NS)
[15] = Homo sapiens, SK-OV-3, 168 h, SKOV3 (ovary, adenocarcinoma)
[16] = Homo sapiens, SNU-C1, 168 h, SNUC1 (large intestine, adenocarcinoma)
[17] = Homo sapiens, SW837, 168 h, SW837 (large intestine, adenocarcinoma)
[18] = Homo sapiens, SW1417, 168 h, SW1417 (large intestine, adenocarcinoma)
[19] = Homo sapiens, TE-15, 168 h, TE15 (oesophagus, squamous cell carcinoma)
[20] = Homo sapiens, UACC-812, 168 h, UACC812 (breast, ductal carcinoma)
[21] = Homo sapiens, VCaP, 168 h, VCAP (prostate, adenocarcinoma)
[22] = KASUMI1 (haematopoietic and lymphoid tissue, acute myeloid leukaemia)
[23] = KG1 (haematopoietic and lymphoid tissue, acute myeloid leukaemia)
[24] = KURAMOCHI (ovary, undifferentiated carcinoma)
[25] = KYSE70 (oesophagus, squamous cell carcinoma)
[26] = LU99 (lung, large cell carcinoma)
[27] = MDAMB157 (breast, ductal carcinoma)
[28] = MDAMB 175 VII (breast, ductal carcinoma)
[29] = NCI-H1435, 168 h, NCIH1435 (lung, non-small cell carcinoma)
[30] = NCIH596 (lung, mixed adenosquamous carcinoma)
[31] = NCIH1395 (lung, adenocarcinoma)
[32] = NCIH1435 (lung, non-small cell carcinoma)
[33] = NCIH1563 (lung, adenocarcinoma)
[34] = NCIH1573 (lung, adenocarcinoma)
[35] = NCIH1650 (lung, bronchioloalveolar adenocarcinoma)
[36] = NCIH1755 (lung, adenocarcinoma)
[37] = NCIH1838 (lung, non-small cell carcinoma)
[38] = NCIH2009 (lung, adenocarcinoma)
[39] = NMCG1 (central nervous system, NS)
[40] = ONS76 (central nervous system, NS)
[41] = SCC9 (upper aerodigestive tract, squamous cell carcinoma)
[42] = SCC15 (upper aerodigestive tract, squamous cell carcinoma)
[43] = SCC25 (upper aerodigestive tract, squamous cell carcinoma)
[44] = SNUC1 (large intestine, adenocarcinoma)
[45] = SW579 (thyroid, anaplastic carcinoma)
[46] = SW579, 168 h, SW579 (thyroid, anaplastic carcinoma)
[47] = SW837 (large intestine, adenocarcinoma)
[48] = SW1271 (lung, small cell carcinoma)
[49] = SW1271, 168 h, SW1271 (lung, small cell carcinoma)
[50] = SW1417 (large intestine, adenocarcinoma)
[51] = T24 (urinary tract, transitional cell carcinoma)
[52] = TE1 (oesophagus, squamous cell carcinoma)
[53] = TE8 (oesophagus, squamous cell carcinoma)
[54] = TE15 (oesophagus, squamous cell carcinoma)
[55] = UACC812 (breast, ductal carcinoma)
[56] = VCAP (prostate, adenocarcinoma)

CC(C)c1ccc(N(C)c2ccc3c(c2)OCC[C@H]3CNc2cnccc2C(=O)O)cc1 [Compound 1, 3-({[(4R)-7-{methyl[4-(propan-2-yl)phenyl]amino}-3,4-dihydro-2H-1-benzopyran-4-yl]methyl}amino)pyridine-4-carboxylic acid]
EC50 [1]: ≥ 10 µM
IC50 [1]: ≥ 10 µM
EC50 [2]: ≥ 10 µM
IC50 [2]: ≥ 10 µM
EC50 [3]: ≥ 10 µM
IC50 [3]: ≥ 10 µM
EC50 [4]: 8.02 µM
IC50 [4]: ≥ 10 µM
EC50 [5]: ≥ 10 µM
IC50 [5]: ≥ 10 µM
EC50 [6]: ≥ 10 µM
IC50 [6]: ≥ 10 µM
EC50 [7]: ≥ 10 µM
IC50 [7]: ≥ 10 µM
EC50 [8]: ≥ 10 µM
IC50 [8]: ≥ 10 µM
EC50 [9]: ≥ 10 µM
IC50 [9]: ≥ 10 µM
EC50 [10]: ≥ 10 µM
IC50 [10]: ≥ 10 µM
EC50 [11]: ≥ 10 µM
IC50 [11]: ≥ 10 µM
EC50 [12]: ≥ 10 µM
IC50 [12]: ≥ 10 µM
EC50 [13]: ≥ 10 µM
IC50 [13]: ≥ 10 µM
EC50 [14]: ≥ 10 µM
IC50 [14]: ≥ 10 µM
EC50 [15]: ≥ 10 µM
IC50 [15]: ≥ 10 µM
EC50 [16]: ≥ 10 µM
IC50 [16]: ≥ 10 µM
EC50 [17]: ≥ 10 µM
IC50 [17]: ≥ 10 µM
EC50 [18]: ≥ 10 µM
IC50 [18]: ≥ 10 µM
EC50 [19]: ≥ 10 µM
IC50 [19]: ≥ 10 µM
EC50 [20]: 6.95 µM
IC50 [20]: ≥ 10 µM
EC50 [21]: ≥ 10 µM
IC50 [21]: ≥ 10 µM
AUC [22]: 0.8823
Emax [22]: 81.08
AUC [23]: 0.9592
Emax [23]: 80.44
AUC [24]: 0.8742
Emax [24]: 73.85
AUC [25]: 0.6942
Emax [25]: 50.19
AUC [26]: 0.79
Emax [26]: 64.66
AUC (MALME3M (skin, NS)): 0.9867
Emax (MALME3M (skin, NS)): 94.08
AUC [27]: 0.8362
Emax [27]: 64.71
AUC [28]: 0.7385
Emax [28]: 60.66
AUC (MDAMB231 (breast, NS)): 0.7262
Emax (MDAMB231 (breast, NS)): 55.94
AUC (MDAMB361 (breast, NS)): 1.117
Emax (MDAMB361 (breast, NS)): 94.55
AUC (MDAMB415 (breast, NS)): 0.9413
Emax (MDAMB415 (breast, NS)): 83.39
AUC (MDAMB436 (breast, NS)): 0.8438
Emax (MDAMB436 (breast, NS)): 70.42
AUC (MDAMB468 (breast, NS)): 0.6972
Emax (MDAMB468 (breast, NS)): 50.87
AUC (MEWO (skin, NS)): 0.7237
Emax (MEWO (skin, NS)): 56.56
EC50 [29]: ≥ 10 µM
IC50 [29]: ≥ 10 µM
AUC (NCIH441 (lung, adenocarcinoma)): 0.7804
Emax (NCIH441 (lung, adenocarcinoma)): 67.49
AUC [30]: 0.8151
Emax [30]: 61.34
AUC [31]: 0.8542
Emax [31]: 70.68
AUC [32]: 0.7612
Emax [32]: 60.04
AUC [33]: 0.9652
Emax [33]: 93.507
AUC [34]: 0.7482
Emax [34]: 53.57
AUC [35]: 0.8746
Emax [35]: 68.07
AUC [36]: 1.29
Emax [36]: 123.3293
AUC [37]: 0.7858
Emax [37]: 60.0585
AUC [38]: 0.7914
Emax [38]: 55.69
AUC (NIHOVCAR3 (ovary, NS)): 0.7771
Emax (NIHOVCAR3 (ovary, NS)): 59.47
AUC [39]: 0.7013
Emax [39]: 47.06
AUC [40]: 0.7336
Emax [40]: 54.63
AUC (RPMI7951 (skin, NS)): 0.8067
Emax (RPMI7951 (skin, NS)): 66.31
AUC (SAOS2 (bone, NS)): 1.081
Emax (SAOS2 (bone, NS)): 92.52
AUC [41]: 0.9424
Emax [41]: 69.25
AUC [42]: 0.9489
Emax [42]: 90.39
AUC [43]: 0.7789
Emax [43]: 62.3079
AUC (SKHEP1 (liver, adenocarcinoma)): 0.7091
Emax (SKHEP1 (liver, adenocarcinoma)): 44.3029
AUC (SKMEL24 (skin, NS)): 0.7882
Emax (SKMEL24 (skin, NS)): 58.12
AUC (SKMEL31 (skin, NS)): 0.7393
Emax (SKMEL31 (skin, NS)): 59.49
AUC (SKNSH (autonomic ganglia, NS)): 0.7295
Emax (SKNSH (autonomic ganglia, NS)): 53.89
AUC (SKOV3 (ovary, adenocarcinoma)): 0.9901
Emax (SKOV3 (ovary, adenocarcinoma)): 96.03
AUC [44]: 0.7478
Emax [44]: 55.45
AUC [45]: 0.9203
Emax [45]: 79.98
EC50 [46]: ≥ 10 µM
IC50 [46]: ≥ 10 µM
AUC [47]: 0.7109
Emax [47]: 46.73
AUC [48]: 0.8179
Emax [48]: 65.38
EC50 [49]: ≥ 10 µM
IC50 [49]: ≥ 10 µM
AUC [50]: 0.9634
Emax [50]: 91.96
AUC [51]: 0.9289
Emax [51]: 75.74
AUC [52]: 0.938
Emax [52]: 84.54
AUC [53]: 0.816
Emax [53]: 72.1307
AUC [54]: 1.084
Emax [54]: 89.04
AUC [55]: 0.8418
Emax [55]: 62.67
AUC [56]: 0.7822
Emax [56]: 62.6
